According to US20190085024A1, “Alpha-Ketoamide Inhibitors Of Cysteine Proteases” (Phelix Therapeutics, priority 2017, published 2019):
*1 amine or outer side, *2 acyl side, *3 side chain or, on linkers, in order; H or OH if unused. Where a SMILES comes first, the peptide text is derived from it. [ ]: non-standard residue; d: D form. The star is where a group is joined. ξ: configuration not given here. ξβ3hPhe(2-oxo) = O=C(C(=O)[*:2])C(Cc1ccccc1)N[*:1]; ξ3Amino2oxobutanoyl = CC(N[*:1])C(=O)C(=O)[*:2]; 2Nal = N[CH](Cc1ccc2ccccc2c1)C(=O)O; Cbz = O=C(OCc1ccccc1)*

What was measured:
[1] = molecular target: Calpain; assay: Calpain enzyme assay; type: biochemical; settings: Ki by Morrison equation; pH 7.5, 5 mM CaCl2
[2] = molecular target: Cathepsin L (Homo sapiens, UniProt P07711); assay: Cathepsin L enzyme assay; type: biochemical; settings: Ki by Morrison equation; pH 5.5, substrate Z-Phe-Arg-Amc; read-out: Cat L
From the text: Two wells contained DMSO only for controls.
Velocity was converted to μM/sec.

[3] = molecular target: Cathepsin B (Homo sapiens, UniProt P07858); assay: Cathepsin B enzyme assay; settings: Cat B (μM), Ki by Morrison equation; pH 6.0, substrate Z-Phe-Arg-Amc
[4] = test system: MERS WT; assay: microbe, parasite or virus in culture; type: cell-based; settings: Middle East respiratory syndrome-related coronavirus, read-out: MERS WT (μM)

Sequence of Cathepsin L (P07711 114-333, species assumed): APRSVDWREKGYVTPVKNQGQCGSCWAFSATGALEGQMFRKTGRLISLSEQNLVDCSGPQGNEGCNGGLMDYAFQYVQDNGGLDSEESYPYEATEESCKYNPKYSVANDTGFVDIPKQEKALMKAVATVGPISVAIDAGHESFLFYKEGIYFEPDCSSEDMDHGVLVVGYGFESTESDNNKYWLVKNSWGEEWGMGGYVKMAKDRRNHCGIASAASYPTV

Compound: CC[C@H](C)[C@H](NC(=O)C(=O)C(C)(C)NC(=O)[C@H](Cc1ccccc1)NC(=O)Cc1ccccc1)C(=O)NC(C)(C)C(=O)O [PHELIX160, 12-benzyl-5-(sec-butyl)-2,2,9,9-tetramethyl-4,7,8,11,14-pentaoxo-15-phenyl-3,6,10,13-tetraazapentadecanoic acid]
- Ki [1]: 51 µM
- Ki [2]: 63400 nM
- Ki [3]: 111 µM

Compound: CCC(C)C(NC(=O)C(=O)C(C)NC(=O)CCNC(=O)OCc1ccccc1)C(=O)NC(C)(C)C(=O)O (centres unmarked) [PHELIX164, 13-(sec-butyl)-9,16,16-trimethyl-3,7,10,11,14-pentaoxo-1-phenyl-2-oxa-4,8,12,15-tetraazaheptadecan-17-oic acid]
- Ki [1]: > 100 µM
- Ki [2]: > 1000 nM
- Ki [3]: 34.6 µM

Compound: CC(NC(=O)C(Cc1ccccc1)NC(=O)Cc1ccccc1)C(=O)C(=O)NC(CC1CC1)C(=O)NC(C)(C)C(=O)O (centres unmarked) [PHELIX166, 12-benzyl-5-(cyclopropylmethyl)-2,2,9-trimethyl-4,7,8,11,14-pentaoxo-15-phenyl-3,6,10,13-tetraazapentadecanoic acid]
- Ki [1]: > 100 µM
- Ki [2]: 586 nM
- Ki [3]: 0.0081 µM

Compound: CCC(C)C(NC(=O)C(=O)C(C)NC(=O)C(Cc1cccc(C(F)(F)F)c1)NC(=O)Cc1ccccc1)C(=O)NC(C)(C)C(=O)O (centres unmarked) [PHELIX170, 5-(sec-butyl)-2,2,9-trimethyl-4,7,8,11,14-pentaoxo-15-phenyl-12-(3-(trifluoro-methyl)benzyl)-3,6,10,13-tetraazapentadecanoic acid]
- Ki [1]: 59.7 µM
- Ki [2]: 1190 nM
- Ki [3]: 0.022 µM

Compound: CCC(C)C(NC(=O)C(=O)C(C)NC(=O)C(CC(C)C)NC(=O)Cc1ccccc1)C(=O)NC(C)(C)C(=O)O (centres unmarked) [PHELIX171, 5-(sec-butyl)-12-isobutyl-2,2,9-trimethyl-4,7,8,11,14-pentaoxo-15-phenyl-3,6,10,13-tetraazapentadecanoic acid]
- Ki [1]: 3.9 µM
- Ki [2]: 632 nM
- Ki [3]: 0.56 µM

Compound: CCC(C)C(NC(=O)C(=O)C(C)NC(=O)[C@H](Cc1cncs1)NC(=O)Cc1ccccc1)C(=O)NC(C)(C)C(=O)O (stereo partly drawn) [PHELIX173, (12S)-5-(sec-butyl)-2,2,9-trimethyl-4,7,8,11,14-pentaoxo-15-phenyl-12-(thiazol-5-ylmethyl)-3,6,10,13-tetraazapentadecanoic acid]
- Ki [1]: > 100 µM
- Ki [2]: 3330 nM
- Ki [3]: 0.72 µM

Compound: CCCC(NC(=O)C(=O)C(C)NC(=O)C(Cc1ccccc1)NC(=O)Cc1ccccc1)C(=O)NC(C)(C)C(N)=O (centres unmarked) [PHELIX243, N-(1-amino-2-methyl-1-oxopropan-2-yl)-2-(2-oxo-3-(3-phenyl-2-(2-phenylacetamido)propanamido)butanamido)pentanamide]
- Ki [1]: > 10 µM
- Ki [2]: 5580 nM
- Ki [3]: > 10 µM

Compound: CC(C)C[C@H](NC(=O)C(c1ccccc1)c1ccccc1)C(=O)NC(C)C(=O)C(=O)NCC(=O)N[C@@H](Cc1ccc2ccccc2c1)C(N)=O (some centres unmarked) [PHELIX251, N-(4-((2-((1-amino-3-(naphthalen-2-yl)-1-oxopropan-2-yl)amino)-2-oxoethyl)amino)-3,4-dioxobutan-2-yl)-2-(2,2-diphenylacetamido)-4-methylpentanamide]
- Ki [1]: 0.025 µM
- Ki [2]: 1.4 nM
- IC50 [4]: > 30 µM
- Ki [3]: 0.106 µM

Compound: CC(C)CC(NC(=O)OCc1ccccc1)C(=O)NC(Cc1ccccc1)C(=O)C(=O)NC(C)C(=O)NC(CCC(=O)O)C(=O)NC(CCCNC(=N)N)C(N)=O (stereo not drawn) [PHELIX252, 15-((1-amino-5-guanidino-1-oxopentan-2-yl)carbamoyl)-8-benzyl-5-isobutyl-12-methyl-3,6,9,10,13-pentaoxo-1-phenyl-2-oxa-4,7,11,14-tetraazaoctadecan-18-oic acid] (Cbz-L[ξβ3hPhe(2-oxo)]AER-NH2; configuration not given here)
- Ki [1]: 0.017 µM
- Ki [2]: 5.03 nM
- IC50 [4]: > 30 µM
- Ki [3]: > 10 µM

Compound: CC(C)CC(NC(=O)Cc1ccc(-c2ccccc2)cc1)C(=O)NC(C)C(=O)C(=O)NCC(=O)NC(Cc1ccc2ccccc2c1)C(N)=O (centres unmarked) [PHELIX253, 2-(2-([1,1′-biphenyl]-4-yl)acetamido)-N-(4-((2-((1-amino-3-(naphthalen-2-yl)-1-oxopropan-2-yl)amino)-2-oxoethyl)amino)-3,4-dioxobutan-2-yl)-4-methylpentanamide]
- Ki [1]: 0.0214 µM
- Ki [2]: 21.5 nM
- IC50 [4]: > 30 µM
- Ki [3]: 1.17 µM

Compound: CC(C)CC(NC(=O)OCc1ccccc1)C(=O)NC(Cc1ccccc1)C(=O)C(=O)NCC(=O)NC(Cc1ccc2ccccc2c1)C(N)=O (centres unmarked) [PHELIX256, benzyl (1-((4-((2-((1-amino-3-(naphthalen-2-yl)-1-oxopropan-2-yl)amino)-2-oxoethyl)amino)-3,4-dioxo-1-phenylbutan-2-yl)amino)-4-methyl-1-oxopentan-2-yl)carbamate]
- Ki [1]: 0.0122 µM
- Ki [2]: 1.47 nM
- IC50 [4]: 4.97 µM
- Ki [3]: 0.24 µM

Compound: CC(C)CC(NC(=O)C(Cc1ccccc1)NC(=O)OCc1ccccc1)C(=O)NC(C)C(=O)C(=O)NCC(=O)NC(Cc1ccc2ccccc2c1)C(N)=O (centres unmarked) [PHELIX258, benzyl (1-amino-12-isobutyl-9-methyl-2-(naphthalen-2-ylmethyl)-1,4,7,8,11,14-hexaoxo-16-phenyl-3,6,10,13-tetraazahexadecan-15-yl)carbamate] (Cbz-FL[ξ3Amino2oxobutanoyl]G[2Nal]-NH2; configuration not given here)
- Ki [1]: 0.0019 µM
- Ki [2]: 6.14 nM
- Ki [3]: 0.42 µM

Compound: CC(NC(=O)C(Cc1ccccc1)NC(=O)Cc1ccccc1)C(=O)C(=O)NC(CC1CCCCC1)C(=O)NC(Cc1ccc(-c2ccccc2)cc1)C(N)=O (centres unmarked) [PHELIX259, N-(1-((3-([1,1′-biphenyl]-4-yl)-1-amino-1-oxopropan-2-yl)amino)-3-cyclohexyl-1-oxopropan-2-yl)-2-oxo-3-(3-phenyl-2-(2-phenylacetamido)propanamido)butanamide]
- Ki [1]: > 10 µM
- Ki [2]: 1.93 nM
- IC50 [4]: 1.1 µM
- Ki [3]: > 10 µM

Compound: CC(NC(=O)C(Cc1ccccc1)NC(=O)Cc1ccccc1)C(=O)C(=O)NC(CC1CC1)C(=O)NC(Cc1ccc(-c2ccccc2)cc1)C(N)=O (centres unmarked) [PHELIX260, N-(1-((3-([1,1′-biphenyl]-4-yl)-1-amino-1-oxopropan-2-yl)amino)-3-cyclopropyl-1-oxopropan-2-yl)-2-oxo-3-(3-phenyl-2-(2-phenylacetamido)propanamido)butanamide]
- Ki [1]: > 10 µM
- Ki [2]: 0.27 nM
- IC50 [4]: 1.81 µM
- Ki [3]: 0.0178 µM

Compound: CC(NC(=O)C(Cc1ccccc1)NC(=O)Cc1ccccc1)C(=O)C(=O)NC(Cc1ccc(C(F)(F)F)cc1)C(=O)NC(Cc1ccc(-c2ccccc2)cc1)C(N)=O (centres unmarked) [PHELIX261, N-(1-((3-([1,1′-biphenyl]-4-yl)-1-amino-1-oxopropan-2-yl)amino)-1-oxo-3-(4-(trifluoromethyl)phenyl)propan-2-yl)-2-oxo-3-(3-phenyl-2-(2-phenylacetamido)propanamido)butanamide]
- Ki [1]: > 10 µM
- Ki [2]: 2.48 nM
- IC50 [4]: 2.56 µM
- Ki [3]: > 10 µM

Compound: CC(NC(=O)C(Cc1ccccc1)NC(=O)Cc1ccccc1)C(=O)C(=O)NC(Cc1ccc(F)cc1)C(=O)NC(Cc1ccc(-c2ccccc2)cc1)C(N)=O (centres unmarked) [PHELIX262]
- Ki [1]: > 10 µM
- Ki [2]: 0.04 nM
- Ki [3]: 0.435 µM

Compound: CC(NC(=O)C(Cc1ccccc1)NC(=O)Cc1ccccc1)C(=O)C(=O)NC(Cc1ccccc1F)C(=O)NC(Cc1ccc(-c2ccccc2)cc1)C(N)=O (centres unmarked) [PHELIX263, N-(1-((3-([1,1′-biphenyl]-4-yl)-1-amino-1-oxopropan-2-yl)amino)-3-(2-fluorophenyl)-1-oxopropan-2-yl)-2-oxo-3-(3-phenyl-2-(2-phenylacetamido)propanamido)butanamide]
- Ki [1]: > 10 µM
- Ki [2]: 0.06 nM
- IC50 [4]: 0.99 µM
- Ki [3]: 0.6 µM

Compound: CC(NC(=O)C(Cc1ccccc1)NC(=O)Cc1ccccc1)C(=O)C(=O)NC(Cc1cccc(C(F)(F)F)c1)C(=O)NC(Cc1ccc(-c2ccccc2)cc1)C(N)=O (centres unmarked) [PHELIX264, N-(1-((3-([1,1′-biphenyl]-4-yl)-1-amino-1-oxopropan-2-yl)amino)-1-oxo-3-(3-(trifluoromethyl)phenyl)propan-2-yl)-2-oxo-3-(3-phenyl-2-(2-phenylacetmido)propanamido)butanamide]
- Ki [1]: > 10 µM
- Ki [2]: 1.91 nM
- IC50 [4]: 2.68 µM
- Ki [3]: > 10 µM

Compound: CC(NC(=O)C(Cc1ccccc1)NC(=O)Cc1ccccc1)C(=O)C(=O)NC(Cc1ccccc1C(F)(F)F)C(=O)NC(Cc1ccc(-c2ccccc2)cc1)C(N)=O (centres unmarked) [PHELIX265, N-(1-((3-([1,1′-biphenyl]-4-yl)-1-amino-1-oxopropan-2-yl)amino)-1-oxo-3-(2-(trifluoromethyl)phenyl)propan-2-yl)-2-oxo-3-(3-phenyl-2-(2-phenylacetamido)propanamido)butanamide]
- Ki [1]: > 10 µM
- Ki [2]: 302 nM
- IC50 [4]: 2.2 µM
- Ki [3]: > 10 µM

Compound: CC(NC(=O)C(Cc1ccccc1)NC(=O)Cc1ccccc1)C(=O)C(=O)NC(Cc1cccc(F)c1)C(=O)NC(Cc1ccc(-c2ccccc2)cc1)C(N)=O (centres unmarked) [PHELIX266, N-(1-((3-([1,1′-biphenyl]-4-yl)-1-amino-1-oxopropan-2-yl)amino)-3-(3-fluorophenyl)-1-oxopropan-2-yl)-2-oxo-3-(3-phenyl-2-(2-phenylacetamido)propanamido)butanamide]
- Ki [1]: > 10 µM
- Ki [2]: 0.14 nM
- IC50 [4]: 0.78 µM
- Ki [3]: > 10 µM

Compound: CCC(C)C(NC(=O)C(CC(C)C)NC(=O)OCc1ccccc1)C(=O)C(=O)NC(CCCNC(N)=O)C(=O)NC(Cc1ccc2ccccc2c1)C(N)=O (centres unmarked) [PHELIX315, benzyl (1-((1-((1-((1-amino-3-(naphthalen-2-yl)-1-oxopropan-2-yl)amino)-1-oxo-5-ureidopentan-2-yl)amino)-4-methyl-1,2-dioxohexan-3-yl)amino)-4-methyl-1-oxopentan-2-yl)carbamate]
- Ki [1]: 0.00148 µM
- Ki [2]: 0.47 nM
- Ki [3]: > 10 µM
